Source: patent EP0362382A1, “METHOD OF STERILIZING PLANT POLLEN” (VSESOJUZNY NAUCHNO-ISSLEDOVATELSKY INST. SELSKOKHOZYAISTV. …, priority 1988, dated 1989)

What was measured:
[1] = system: Tritikale; test: Field test of gametocidal activity (sterilisation of anthers), triticale; assay type: in vivo; conditions: V. Periode der Organogenese, 1,5%ige wäßrige Emulsion
Text: (§1) Die gametozide Aktivitat der erfindungsgemäßen Sterilisationsmittel war im Feldversuch in verschiedenen bodenklimatischen Zonen mit Teilstücken von 10 m^2 Größe in drei- bis viermaliger Wiederholung festgestellt. Jedes Sterilisationsmittel wurde mindenstens 5 Jahre lang geprüft.
(§2) Die Entwicklung der Perioden der Organogenese wird zytologisch überwacht. Die Behandlung von Pflanzen mit dem Sterilisationsmittel erfolgt am Anfang der fünften Periode der Organogenese nach Kupermann.
Mit dem Ährenschieben verwirklicht man die Isolierung von Hauptähren und anderen Stockwerken in Pergamentbeuteln. Bei Weizen und Tritikale werden Einzelisolatoren benutzt. Bei Roggen schließt man je Ähre 5 bis 7 verschiedene nebeneinander befindliche Pflanzen unter einen gemeinsamen Isolator ein. Bei Hierse wird jede Rispe getrennt isoliert. Der Sterilitätsprozentsatz (X) für Weizen, Roggen, Tritikale und Hirse wird nach der Formel [formula] ermittelt.
Die Kornzahl in nicht isolierten Ähren von Kontrollpflanzen wird bedingt für 100 % Ansetzen bei freier Bestäubung angenommen.
Um zuverlässige Angaben zu erhalten, verwendet man 20 bis 25 Isolatoren jeder Wiederholung für Weizen und Tritikale, 10 .bis 15 Isolatoren jeder Wiederholung für Roggen und Hirse.
Pflanzen von Tritikale PRAG 109 werden in der V. Periode der Organogenese (nach Kupermann) mit 1,5%iger wäßriger Emulsion von Bis(di-n-butyläther) der δ, δ' -Thiodivaleriansäure, 4-Kaxboxybutyldezylsulfid, Bis(2-Äthylhexyläther) der δ, δ' -Thiodivaleriansäure behandelt. Die Emulsion enthält 0,1 Masse% Kalziumalkylbenzolsulfonat mit 12 bis 14 Kohlenstoffatomen und 0,01 Masse% Tetrahydrofuran. Der Verbrauch an Präparat beträgt 15 kg/ha. Als Kontrolle dienen Pflanzen, behandelt mit einem Verdünner ohne Sterilisationsmittel. Die Prüfergebnisse sind in der Tabelle 12 angegeben. […] Periode der Organogenese erhalten.
Pflanzen von Tritikale der Sorte Amphidiploid 206 werden in der V. Periode der Organogenese (nach Kupermann) mit 1,5%iger wäßriger Emulsion von Natriumsalz der δ, δ'-Thiodivaleriansäure, δ, δ' -Sulfonyldivaleriansäure Kaliumsalz der d , δ' -Sulfonyldivaleriansäure behandelt. Die Emulsion enthalt 0,1 Masse% Kalziumalkylbenzolsulfonat mit 12 bis 14 Kohlenstoffatomen und 0,01 Masse% Dodezylsulfat. Der Verbrauch an Präparat beträgt 9 kg/ha. Als Kontrolle dienen Pflanzen, behandelt mit einem Verdünner ohne Sterilisationsmittel. Die Prüfergebnisse sind in der Tabelle 13 angegeben. […] Periode der Organogenese erhalten.

[2] = system: Sonnenblume; test: Field test of chemical sterilisation of sunflower pollen; assay type: in vivo; conditions: V. Periode der Organogenese
Text: as §1, §2
Zur Kontrolle der chemischen Sterilisation des Sonnenblumenpollens werden für jede Verbindung 45 behandelte Pflanzen jeder Wiederholung benutzt, wobei 15 Pflanzen von denen zwecks Selbsbestäubung isoliert werden, Blütenkorbchen anderer 15 Pflanzen mit einem Pollengemisch, gesammelt von 20 bis 25 behandelten isolierten Körbchen, bestäubt werden, und 15 Pflanzen für freie Bestäubung gelassen werden, damit das Ansetzen von Achänen mit dem Pollen der väterlichen Form kontrolliert werden kann.
Man beurteilt die Pollensterilität von Pflanzen der Sonnenblume nach der Pollenfertilität und -keimfähigkeit, nach den morphologischen Besonderheiten von Spermien und nach der Fähigkeit von Achänen zum Ansetzen bei der Bestäubung der behandelten isolierten Pflanzen mit dem Pollen der unbehandelten väterlichen Form. Die Lebensfähigkeit der Eizelle wird nach der Samenbildung von behandelten Pflanzen bei freier Bestäubung mit der väterlichen Form bestimmt.
Man behandelt die Sonnenblume Sorte BHNNMK 8931 (WNIIMK 8931) in der V. Periode der Organogenese mit 0,5%iger wäßriger Emulsion von 4-Karboxybutyldezylsulfid, mit 1%iger Emulsion der δ, δ' -Sulfonyldivaleriansäure, 2%iger Emulsion von Bis(2-äthylhexyläther) der δ, δ' -Thiodivaleriansäure; die Sonnenblume der Linie BK-373 (WK-373) mit 2%iger Emulsion von Bis(2-äthylhexyläther) der δ δ' --Thiodivaleriansäure, mit 0,2%iger Emulsion von Bis(di--n-butyläther) der δ, δ' -Thiodivaleriansäure; die Sonnenblume der Linie BK=364 (WK-365) mit 2%iger wäßriger Emulsion von Bis(2-äthylhexyläther) der δ, δ' -Thirodivaleriansäure, mit 0,2%iger Emulsion von Bis(di-n-butyläther) der δ, δ' -Thiodivaleriansäure. Die Emulsion enthält 0,1 Masse% Kalziumalkylbenzolsulfonat mit 12 bis 14 Kohlenstoffatomen und 0,01 Masse% Dimethylsulfoxid. Als Kontrolle dienen Pflanzen, behandelt mit einem Verdünner ohne Sterilisationsmittel. Die Prüfergebnisse sind in der Tabelle 17 angegeben. […] Periode der Organogenese erhalten.

[3] = Toxicity in animal test; conditions: rat, in vivo; für Ratten
Protocol: Alle erfindungsgemäßen Thiokarbonsäuren oder ihre De- rivate, die als Sterilisationsmittel zur Verwendung kommen, waren auf die Toxizität im Tierversuch geprüft. Die Prüfergebnisse haben gezeigt, daß die angegebenen Verbindungen von schwacher oder mittlerer Toxizität sind. So beträgt beispielsweise LD50 mehr als 2000 mg/kg für Ratten bei Bis (2-äthylhexyläther) der δ, δ'-Thiodivaleriansäure, bei anderen Verbindungen liegen die LD50 -Werte auf dem gleichen Niveau.

[4] = Sorte Amphidiploid 206, 9 kg/ha
[5] = Sorte ВНИИМК 8931 (WNIIMK 8931), Beispiel 75: 0,5%ige, 76: 1%ige, 77: 2%ige Emulsion
[6] = Linie BK-373 (WK-373), Beispiel 78: 2%ige, 79: 0,2%ige Emulsion
[7] = Linie BK-364 (WK-364), Beispiel 80: 2%ige, 81: 0,2%ige Emulsion

## CCCCOC(=O)CCCCSCCCCC(=O)OCCCC [Beispiel 59, Bis(di-n-butyläther) der δ, δ' -Thiodivaleriansäure]
[1]; PRAG 109, 15 kg/ha
  Anzahl von Körnern der Ähre bei freier Bestäubung: 40,1
  Anzahl von Körnern der Ähre im Isolator: 0,3
  Prozentsatz der Sterilität: 99,3%
  Prozentsatz des Ansetzens von Körnern bei freier Bestäubung: 87,6%

## CCCCCCCCCCSCCCCC(=O)O [Beispiel 60, 4-Kaxboxybutyldezylsulfid]
[1]; PRAG 109, 15 kg/ha
  Anzahl von Körnern der Ähre bei freier Bestäubung: 42,3
  Anzahl von Körnern der Ähre im Isolator: 0,0
  Prozentsatz der Sterilität: 100,0%
  Prozentsatz des Ansetzens von Körnern bei freier Bestäubung: 92,4%

## CCCCC(CC)COC(=O)CCCCSCCCCC(=O)OCC(CC)CCCC (stereo not drawn) [Beispiel 61, Bis(2-Äthylhexyläther) der δ, δ' -Thiodivaleriansäure]
[1]; PRAG 109, 15 kg/ha
  Anzahl von Körnern der Ähre bei freier Bestäubung: 40,8
  Anzahl von Körnern der Ähre im Isolator: 0,0
  Prozentsatz der Sterilität: 100,0%
  Prozentsatz des Ansetzens von Körnern bei freier Bestäubung: 89,1%

## O=C(O)CCCCSCCCCC(=O)O [Beispiel 62, Natriumsalz der δ, δ'-Thiodivaleriansäure]
[1]; [4]
  Anzahl von Körnern der Ähre bei freier Bestäubung: 32,5
  Anzahl von Körnern der Ähre im Isolator: 0,9
  Prozentsatz der Sterilität: 97,2%
  Prozentsatz des Ansetzens von Körnern bei freier Bestäubung: 88,8%

## O=C(O)CCCCS(=O)(=O)CCCCC(=O)O [Beispiel 63, δ, δ' -Sulfonyldivaleriansäure]
[1]; [4]
  Anzahl von Körnern der Ähre bei freier Bestäubung: 30,1
  Anzahl von Körnern der Ähre im Isolator: 0,1
  Prozentsatz der Sterilität: 99,7%
  Prozentsatz des Ansetzens von Körnern bei freier Bestäubung: 82,2%

## O=C(O)CCCCS(=O)(=O)CCCCC(=O)O [Beispiel 64, Kaliumsalz der d , δ' -Sulfonyldivaleriansäure]
[1]; [4]
  Anzahl von Körnern der Ähre bei freier Bestäubung: 29,8
  Anzahl von Körnern der Ähre im Isolator: 0,0
  Prozentsatz der Sterilität: 100,0%
  Prozentsatz des Ansetzens von Körnern bei freier Bestäubung: 81,4%

## CCCCCCCCCCSCCCCC(=O)O [Beispiel 75, 4-Karboxybutyldezylsulfid]
[2]; [5]
  Prozentsatz der Sterilität: 100,0%
  Prozentsatz des Ansetzens von Achänen bei freier Bestäubung: 82,9%

## O=C(O)CCCCS(=O)(=O)CCCCC(=O)O [Beispiel 76, δ, δ' -Sulfonyldivaleriansäure]
[2]; [5]
  Prozentsatz der Sterilität: 100,0%
  Prozentsatz des Ansetzens von Achänen bei freier Bestäubung: 71,6%

## CCCCC(CC)COC(=O)CCCCSCCCCC(=O)OCC(CC)CCCC (stereo not drawn) [Beispiel 77, Bis(2-äthylhexyläther) der δ, δ' -Thiodivaleriansäure]
[2]; [5]
  Prozentsatz der Sterilität: 100,0%
  Prozentsatz des Ansetzens von Achänen bei freier Bestäubung: 82,1%

## CCCCC(CC)COC(=O)CCCCSCCCCC(=O)OCC(CC)CCCC (stereo not drawn) [Beispiel 78, Bis(2-äthylhexyläther) der δ δ' --Thiodivaleriansäure]
[2]; [6]
  Prozentsatz der Sterilität: 100,0%
  Prozentsatz des Ansetzens von Achänen bei freier Bestäubung: 60,7%

## CCCCOC(=O)CCCCSCCCCC(=O)OCCCC [Beispiel 79, Bis(di--n-butyläther) der δ, δ' -Thiodivaleriansäure]
[2]; [6]
  Prozentsatz der Sterilität: 100,0%
  Prozentsatz des Ansetzens von Achänen bei freier Bestäubung: 62,7%

## CCCCC(CC)COC(=O)CCCCSCCCCC(=O)OCC(CC)CCCC (stereo not drawn) [Beispiel 80, Bis(2-äthylhexyläther) der δ, δ' -Thirodivaleriansäure]
[2]; [7]
  Prozentsatz der Sterilität: 100,0%
  Prozentsatz des Ansetzens von Achänen bei freier Bestäubung: 67,9%

## CCCCOC(=O)CCCCSCCCCC(=O)OCCCC [Beispiel 81, Bis(di-n-butyläther) der δ, δ' -Thiodivaleriansäure]
[2]; [7]
  Prozentsatz der Sterilität: 100,0%
  Prozentsatz des Ansetzens von Achänen bei freier Bestäubung: 59,3%

## CCCCC(CC)COC(=O)CCCCSCCCCC(=O)OCC(CC)CCCC (stereo not drawn) [Bis (2-äthylhexyläther) der δ, δ'-Thiodivaleriansäure]
[3]
  LD50: > 2000 mg/kg
